Reference: ChEMBL document CHEMBL3826906, “Synthesis of MR-49, a deiodinated analog of tetraiodothyroacetic acid (tetrac), as a novel pro-angiogenesis modulator” (2016)

What was measured:
Mus musculus [1] = test: Pro-angiogenic activity in Balb/c mouse subcutaneously implanted 4 times with 10 ug/implant compound treated mouse EHS-derived matrigel assessed as FGF2-induced matrigel plug vascularization by measuring increase in hemoglobin level measured after 7 to 10 days by spectrophotometric analysis relative to control; type: functional
Mus musculus [2] = test: Antiangiogenic activity in Balb/c mouse subcutaneously implanted 4 times with 10 ug/implant compound treated mouse EHS-derived matrigel assessed as inhibition of FGF2-induced matrigel plug vascularization by measuring decrease in hemoglobin level measured after 7 to 10 days by spectrophotometric analysis relative to control; type: functional

SMILES	fold change (FC) (Mus musculus [1])	inhibition (INH) (Mus musculus [2]) [%]
O=C(O)Cc1cc(I)c(Oc2ccc(O)cc2)c(I)c1	1.6	–
N[C@@H](Cc1cc(I)c(Oc2ccc(O)c(I)c2)c(I)c1)C(=O)O [LIOTHYRONINE]	1.4	–
O=C(O)Cc1cc(I)c(Oc2cc(I)c(O)c(I)c2)c(I)c1 [TETRAC]	–	50
